Patent US8431706B2, “1,2,3,4-tetrahydroqinoline derivative useful for the treatment of diabetes” (Eli Lilly and Company, priority 2011, dated 2013)

Tests used:
[1] = test system: mouse insulinoma cell line Min6; test: Glucose Dependent Insulin Secretion (GDIS) assay in Min6 cells; format: cell-based
Description: Because activation of GPR40 is known to result in insulin secretion, which is dependent on high glucose concentrations, two separate assay systems (an insulinoma cell line and primary rodent islets) are developed to further characterize compounds that are known to increase intracellular calcium in the GPR40 primary assay discussed above.
GDIS assays are performed using the mouse insulinoma cell line Min6. […] On the day of the experiment, the cells are washed twice with 200 μl of pre-warmed Krebs-ringer buffer without glucose. Addition of 200 μL of pre-warmed Krebs-ringer buffer containing 2.5 mM glucose is used to starve the cells followed by the addition of compounds in the presence of a high concentration of glucose (25 mM). The plate is incubated at 37° C. for 2 hours. At the end of the 2 h incubation, the supernatant is gently transferred into a Millipore filter plate and spun at 200 g (gravitational force) for 3 minutes. Insulin is assayed using a Mercodia Insulin estimation kit.

human GPR40 = human GPR40 (Homo sapiens, UniProt O14842); test: cell-based
PPARδ = molecular target: T1, PPARδ (Homo sapiens, UniProt Q03181); test: PPARδ binding assay (SPA)
T1 construct: made in house; host or cells: HEK293 (cell lysates)
T1 sequence (Q03181 1-441): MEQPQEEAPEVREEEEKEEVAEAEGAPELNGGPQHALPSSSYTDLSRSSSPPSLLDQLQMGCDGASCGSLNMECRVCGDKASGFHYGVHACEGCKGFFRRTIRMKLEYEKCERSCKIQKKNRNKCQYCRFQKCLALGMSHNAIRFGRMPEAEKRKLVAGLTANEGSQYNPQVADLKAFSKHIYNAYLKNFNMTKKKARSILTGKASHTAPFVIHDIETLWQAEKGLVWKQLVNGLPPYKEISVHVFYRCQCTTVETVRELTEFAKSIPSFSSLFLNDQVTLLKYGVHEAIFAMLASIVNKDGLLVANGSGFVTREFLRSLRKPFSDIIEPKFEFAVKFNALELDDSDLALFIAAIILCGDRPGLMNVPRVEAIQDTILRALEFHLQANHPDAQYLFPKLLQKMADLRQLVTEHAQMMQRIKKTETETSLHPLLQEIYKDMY
T1 sequence (P19793 1-462 partner): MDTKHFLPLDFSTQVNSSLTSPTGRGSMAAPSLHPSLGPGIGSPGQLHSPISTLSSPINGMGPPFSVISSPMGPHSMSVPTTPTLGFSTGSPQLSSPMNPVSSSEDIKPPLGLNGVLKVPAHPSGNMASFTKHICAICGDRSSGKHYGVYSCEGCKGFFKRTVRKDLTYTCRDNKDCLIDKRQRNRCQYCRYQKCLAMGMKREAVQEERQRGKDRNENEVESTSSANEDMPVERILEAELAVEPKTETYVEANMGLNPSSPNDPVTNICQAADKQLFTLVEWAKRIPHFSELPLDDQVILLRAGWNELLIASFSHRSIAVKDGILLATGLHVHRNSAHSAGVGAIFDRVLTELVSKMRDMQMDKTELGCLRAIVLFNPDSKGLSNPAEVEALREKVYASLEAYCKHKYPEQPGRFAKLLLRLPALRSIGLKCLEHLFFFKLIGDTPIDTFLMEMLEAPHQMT
Description: Because GPR40 is known to be activated by ligands to PPARγ, the exemplified compound is examined in PPARα, PPARδ, and PPARγ binding and functional assays to determine the selectivity of the compound of Example 1 for GPR40.
Binding affinities of the compound for the PPAR α, δ, and γ receptors are assessed using Scintillation Proximity Assay (SPA) technology. Biotinylated oligonucleotide Direct Repeat 2 (DR2) is used for binding the receptors to Yttrium silicate streptavidin-coated SPA beads. PPAR α, δ, γ and retinoid X receptor (RXR) α are over expressed in HEK293 cells, and cell lysates containing the specific receptors are used in the individual assays. The DR2 is attached to the SPA beads over a 30 minute period in a binding buffer containing 10 mM HEPES pH 7.8, 80 mM KCl, 0.5 mM MgCl2, 1 mM DTT, 0.5% 3[(3-cholamidopropyl)dimethylammonio]-propanesulfonic acid (CHAPS), and 4.4% bovine serum. […] Non-specific binding is determined in the presence of 10,000 nM of the unlabeled PPAR α/δ dual agonist reference compound for the alpha and delta receptor assays and the PPARγ agonist reference compound for the gamma receptor assay. The binding reaction (100 μl per well in a 96 well [Costar 3632] plate) is incubated for 10 h and counted disintegration per minutes (dpm) on a Wallac Microbeta. Receptor binding affinity (IC50) for the compound is determined by fitting an 11 point concentration-response curve with a 4-parameter logistic equation. Ki is determined from the IC50 using the Cheng-Prussoff equation and Kd determined by saturation binding. […]

Chain of human GPR40 (O14842 whole entry): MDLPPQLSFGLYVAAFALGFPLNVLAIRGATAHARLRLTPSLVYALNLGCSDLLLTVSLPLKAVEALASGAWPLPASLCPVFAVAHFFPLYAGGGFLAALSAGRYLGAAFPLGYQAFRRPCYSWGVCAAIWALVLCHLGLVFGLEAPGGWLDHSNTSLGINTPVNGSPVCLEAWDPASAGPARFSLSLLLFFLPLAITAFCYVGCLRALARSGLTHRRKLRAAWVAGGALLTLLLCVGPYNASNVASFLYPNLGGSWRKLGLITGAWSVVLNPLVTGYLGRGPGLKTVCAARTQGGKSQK

EC50 (human GPR40; EC50, HEK293 cells over expressing human GPR40, 0.1% fatty acid free BSA, FLIPR): 152 nM | EC50 (human GPR40; EC50 value for the Calcium Flux Primary assay, HEK293 cells over expressing human GPR40, bound stated): < 1000 nM | binding (PPARδ; concentrations up to 10 μM): no binding is detected | IC50 (PPARδ; tested up to 30 μM, read-out: relative IC50): > 10000 nM | PPAR binding values (PPARδ; with 10 μM concentrations of test compound): greater than 1000 nM
Structure (SMILES): CC#C[C@@H](CC(=O)O)c1ccc(OCc2ccc(CN3CCCc4cccc(OC)c43)s2)cc1 [Example 1, (3S)-3-[4-[[5-[(8-Methoxy-3,4-dihydro-2H-quinolin-1-yl)methyl]-2-thienyl]methoxy]phenyl]hex-4-ynoic acid]
increase in insulin secretion ([1]; 1.0 μM plus 25 mM glucose, fold over 25 mM glucose, 2 h, P<0.01): 2.68 fold | insulin secretion, dose response ([1]; 0.01, 0.1, 1.0 and 10.0 μM plus 25 mM glucose): dose dependent increase in insulin secretion
